Values quoted from earlier work, collected in patent publication US7605257B2, “Processes for preparing water-soluble polyethylene glycol conjugates of macrolide immunosuppressants” (Wyeth, priority 2006, dated 2009).

Tested on: various solid tumors
Settings: typical IC50, inhibitor of tumor growth; read-out: IC50 against various solid tumors

- IC50: < 50 nM
SMILES: CO[C@H]1C[C@@H]2CC[C@@H](C)[C@@](O)(O2)C(=O)C(=O)N2CCCC[C@H]2C(=O)O[C@H]([C@H](C)C[C@@H]2CC[C@@H](O)[C@H](OC)C2)CC(=O)[C@H](C)/C=C(\C)[C@@H](O)[C@@H](OC)C(=O)[C@H](C)C[C@H](C)/C=C/C=C/C=C/1C [Rapamycin, rapamycin]
